Tests used:
Assay in all cases: relative viability (nuclei count vs DMSO), 5 days (fraction); higher = more cells survive
201T = system: 201T
Method in brief: (§1)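 Relative viability is defined as nuclei in treated wells over nuclei in vehicle wells. Duplicate plates were run and medians reported. Lung cancer cell lines in 1536-well plates were dosed by pin tool one day after seeding, with one drug or with a fixed anchor-drug dose plus five library-drug doses (not always all listed) in √10 steps, and nuclei were counted after 5 days.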

BEN = system: BEN
Method in brief: as §1

COR-L 105 = system: COR-L 105
Method in brief: as §1

EKVX = system: EKVX
Method in brief: as §1

EPLC-272H = system: EPLC-272H
Method in brief: as §1

H3255 = system: H3255
Method in brief: as §1

HCC-44 = system: HCC-44
Method in brief: as §1

HCC-827 = system: HCC-827
Method in brief: as §1

HOP-62 = system: HOP-62
Method in brief: as §1

LCLC-97TM1 = system: LCLC-97TM1
Method in brief: as §1

LOU-NH91 = system: LOU-NH91
Method in brief: as §1

LU99A = system: LU99A
Method in brief: as §1

NC(=O)Nc1cc(-c2cccc(F)c2)sc1C(=O)N[C@H]1CCCNC1 [AZD7762] + O=C(CCCCCCC(=O)Nc1ccccc1)NO [Vorinostat] (partner 1 µM)
relative viability (201T; first compound 0.01 µM): 0.996
relative viability (201T; first compound 0.03162 µM): 1.03
relative viability (201T; first compound 0.1 µM): 1.03
relative viability (201T; first compound 0.3162 µM): 1.08
relative viability (201T; first compound 1 µM): 1.01
relative viability (BEN; first compound 0.01 µM): 0.639
relative viability (BEN; first compound 0.03162 µM): 0.558
relative viability (BEN; first compound 0.1 µM): 0.633
relative viability (BEN; first compound 0.3162 µM): 0.619
relative viability (BEN; first compound 1 µM): 0.543
relative viability (COR-L 105; first compound 0.01 µM): 0.989
relative viability (COR-L 105; first compound 0.03162 µM): 0.823
relative viability (COR-L 105; first compound 0.1 µM): 0.808
relative viability (COR-L 105; first compound 0.3162 µM): 0.609
relative viability (COR-L 105; first compound 1 µM): 0.444
relative viability (EKVX; first compound 0.01 µM): 0.78
relative viability (EKVX; first compound 0.03162 µM): 0.758
relative viability (EKVX; first compound 0.1 µM): 0.707
relative viability (EKVX; first compound 0.3162 µM): 0.794
relative viability (EKVX; first compound 1 µM): 0.461
relative viability (EPLC-272H; first compound 0.01 µM): 0.705
relative viability (EPLC-272H; first compound 0.03162 µM): 0.543
relative viability (EPLC-272H; first compound 0.1 µM): 0.383
relative viability (EPLC-272H; first compound 0.3162 µM): 0.107
relative viability (EPLC-272H; first compound 1 µM): 0.0642
relative viability (H3255; first compound 0.01 µM): 0.944
relative viability (H3255; first compound 0.03162 µM): 0.831
relative viability (H3255; first compound 0.1 µM): 0.809
relative viability (H3255; first compound 0.3162 µM): 0.722
relative viability (H3255; first compound 1 µM): 0.684
relative viability (HCC-44; first compound 0.01 µM): 1.08
relative viability (HCC-44; first compound 0.03162 µM): 1.11
relative viability (HCC-44; first compound 0.1 µM): 1.1
relative viability (HCC-44; first compound 0.3162 µM): 1.1
relative viability (HCC-44; first compound 1 µM): 1.02
relative viability (HCC-827; first compound 0.01 µM): 0.984
relative viability (HCC-827; first compound 0.03162 µM): 0.947
relative viability (HCC-827; first compound 0.1 µM): 0.846
relative viability (HCC-827; first compound 0.3162 µM): 0.753
relative viability (HCC-827; first compound 1 µM): 0.618
relative viability (HOP-62; first compound 0.01 µM): 0.571
relative viability (HOP-62; first compound 0.03162 µM): 0.68
relative viability (HOP-62; first compound 0.1 µM): 0.701
relative viability (HOP-62; first compound 0.3162 µM): 0.607
relative viability (HOP-62; first compound 1 µM): 0.237
relative viability (LCLC-97TM1; first compound 0.01 µM): 0.799
relative viability (LCLC-97TM1; first compound 0.03162 µM): 0.725
relative viability (LCLC-97TM1; first compound 0.1 µM): 0.648
relative viability (LCLC-97TM1; first compound 0.3162 µM): 0.636
relative viability (LCLC-97TM1; first compound 1 µM): 0.356
relative viability (LOU-NH91; first compound 0.01 µM): 0.87
relative viability (LOU-NH91; first compound 0.03162 µM): 0.971
relative viability (LOU-NH91; first compound 0.1 µM): 0.917
relative viability (LOU-NH91; first compound 0.3162 µM): 0.741
relative viability (LOU-NH91; first compound 1 µM): 0.646
relative viability (LU99A; first compound 0.01 µM): 0.469
relative viability (LU99A; first compound 0.03162 µM): 0.536

From the supplement of paper PMC10307832
